# Assay results published in article PMC3689833, “Neurochemical Changes in the Mouse Hippocampus Underlying the Antidepressant Effect of Genetic Deletion of P2X7 Receptors” (PLoS ONE, 2013).
# Tests used:
# [1] = tested on: acute hippocampal slices; experiment: [3H]Glutamate and endogenous glutamate release from acute hippocampal slices; assay type: cell-based, mouse
# Description: The [^3H]Glu release experiments were conducted using the method described in our previous papers. Briefly, the mice were anaesthetized under light CO2 inhalation, and subsequently decapitated. The hippocampus was dissected from each mouse in ice-cold Krebs solution saturated with 95% O2 and 5% CO2, sectioned (400-µm-thick slices) using a McIlwain tissue chopper and incubated in 1 ml of modified Krebs solution (113 mM NaCl, 4.7 mM KCl, 2.5 mM CaCl2, 1.2 mM KH2PO4, 1.2 mM MgSO4, 25.0 mM NaHCO3, and 11.5 mM glucose), pH 7.4, in the presence of 5 µCi/ml [^3H]glutamic acid ([^3H]Glu, 9.8×10^−8 M, specific activity 51 Ci/mmol; Perkin Elmer) for 45 min. The medium was bubbled with 95% O2 and 5% CO2 and maintained at 32°C. After loading, the slices were continuously superfused with 95% O2 and 5% CO2-saturated modified Krebs solution (flow rate: 0.7 ml/min).
# Subsequently, the perfused samples were collected over a 3-min period and measured for tritium content. At 6 min after the start of the collection, the slices were subjected to a 6-min perfusion of the agonist (ATP) at various concentrations (1, 3, 6 and 10 mM) and then changed to normal Krebs solution until the end of the collection period. In some experiments, the P2X1 receptor antagonist, NF449 (100 nM), or the selective P2rx7 antagonist Brilliant blue G (100 nM) was applied to the perfusion solution at 15 min before the beginning of the ATP perfusion.
# The radioactivity released from the preparations was measured using a Packard 1900 Tricarb liquid scintillation spectrometer, using Ultima Gold Scintillation cocktail. The release of tritium was expressed as a percentage of the amount of radioactivity in the tissue at the sample collection time (fractional release). The tritium uptake in the tissue was determined as the sum of release+the tissue content after the experiment and expressed in Bq/g. For the evaluation of the basal tritium outflow the fractional release measured in four consecutive 3 min samples under drug free conditions were taken into account. The ATP-induced [^3H]Glu efflux calculated as the net release in response to the respective stimulus by subtracting the release before the stimulation from the values measured after stimulation. Selected samples collected under resting conditions and during the peak of the ATP-evoked response were subjected to further HPLC analyses.
# The separation of pre-column dansylated amino acids was performed using a gradient elution-working mode at ambient temperature. The mobile phase A consisted of 5/95 (v/v) 78/22 acetonitrile/methanol in 15 mM ammonium formate buffer, and the mobile phase B was composed of 90/10 (v/v 78/22) acetonitrile/methanol in ammonium formate buffer, pH 3.7. The mobile phase B increased linearly (at 0.11 min to 50% 17 min to 72% and 26 min to 100%, followed by a final run to 54 min), the flow rate was 0.7 ml/min. The analytical and the trap column were equilibrated for 10 min, and enrichment and clean-up procedures were performed. The dansylated derivatives were detected using an absorbance detector (Agilent 1100) at a 319 nm wavelength. The retention time of the dansylated Glu was 11.4 min. Pre-column derivatization was performed by mixing 50 µl of dansyl chloride prepared by dissolving 5 mg 5-(dimethylamino)naphthalene-1-sulfonyl chloride in acetonitrile daily and adding 50 µl of 2 M sodium carbonate, which contained norvaline (20 µM) as an internal standard in 25 µl of sample. After a 10-min reaction time at 60°C, the mixture was acidified using 25 µl of 6 M formic acid and injected onto the “trap-column”.
# [2] = tested on: BDNF level in hippocampal slices; experiment: BDNF protein assay (ELISA), in vitro study in hippocampal slices; assay type: cell-based, mouse; settings: for effect on the inhibitory effect of BzATP on BDNF level / effect on basal BDNF level, compound alone (no BzATP): CNQX 10 µM, TCN-201 10 µM; for effect on the inhibitory effect of BzATP on BDNF level / effect on basal BDNF level, compound alone (no BzATP) / BDNF level in hippocampal slices in the presence of BzATP: RO-256981 3 µM, MCPG 200 µM; for BDNF level in hippocampal slices in the presence of BzATP: + BzATP 100 µM, BBG 100 nM, DHPG 100 µM; for BDNF level in hippocampal slices, compound alone: RO-256981 3 µM 15 min, DHPG 100 µM 10 min
# Description: The P2rx7 wild type and knockout mice were anesthetized under light CO2 inhalation and decapitated. The hippocampus was dissected in ice-cold Krebs solution saturated with 95% O2 and 5% CO2, sectioned (400 µm thick slices) using a McIlwain tissue chopper and incubated in 2 ml of modified Krebs solution in the presence of 1 ml Hibernate medium, ascorbic acid (300 µM) and Na2EDTA (30 µM) for 60 min. The medium was bubbled continuously with 95% O2 and 5% CO2 and maintained at 37°C. The P2rx7 agonist, BzATP, was added to the incubation solution for 30 min, whereas BBG was applied 15 min before BzATP application. RO-256981, 6-cyano-7-nitroquinoxaline-2,3-dione (CNQX) and 3-Chloro-4-fluoro-N-[4[[2(phenylcarbonyl)hydrazino]carbonyl]benzyl] benzenesulfonamide (TCN-201) were applied for 15 min, while MCPG was administered for 30 min. The group I metabotropic glutamate receptor agonist, dihydroxyphenylglycine (DHPG), was administered for 10 min. The DHPG, MCPG, and RO-256981 dosages were chosen based on previous studies, [47], [48]. In the experiments with BzATP, Mg^2+ was omitted from the incubation solution. The hippocampal slices were collected, frozen on dry ice and stored at −70°C until further investigation. Each experimental group contained 3–4 mice.
# At the time of analysis, the samples were removed from the freezer and weighed. The BDNF extraction procedure was performed in accordance with the methods of a previous study. For the BDNF assays, 2 ml lysis buffer (100 mM PIPES, pH 7, 500 mM NaCl, 0.2% Triton X-100, 0.1% NaN3, 2% BSA, 2 mM EDTA, 200 µM PMSF, 10 µg/mL aprotinin, 1 µg/mL leupeptin, and 0.5 mM sodium vanadate) was added to each sample, and the hippocampus was sonicated at power level 2 using pulses at 1 sec intervals for 10–15 sec. Subsequently, the samples were centrifuged at 16,000 × g for 30 min at 4°C. 100 µl aliquots of the resulting supernatants were removed and diluted with 400 µl of DPBS buffer (137 mM NaCl, 2.68 mM KCl, 1.47 mM KH2PO4, 8.1 mM Na2HPO4 (pH 7.35), 0.9 mM CaCl2·H2O, and 0.5 mM MgCl2·H2O). The supernatants were collected and stored at −70?C until further analysis. For the total free BDNF measurement, the samples were acid treated with 1 µl of 1 N HCl for each 50 µl of diluted samples to decrease the pH to 2.5, followed by incubation at room temperature for 15 min. The samples were neutralized with 1 µl of 1 N NaOH for each 50 µl of diluted samples. The levels of BDNF (both precursor and mature forms) expression were evaluated using an enzyme-linked immunosorbent assay (ELISA) kit and a BDNF Emax ImmunoAssay System (Promega Corporation, Madison, WI, USA), which is specific for mouse BDNF protein, according to the manufacturer’s instructions. The BDNF levels were calculated by plotting the optical density (OD) of each sample against the standard curve. A seven-point standard curve using two-fold serial dilutions in Reagent Diluent (according the manufacturer’s instructions) and a high standard of 500 pg/ml were used for the determination of BDNF levels. The assay detection limits were <15 pg/ml. Absorbance was measured at 450 nm using a Perkin-Elmer Victor 3V 1420 Multilabel Counter.
# [3] = tested on: P2rx7+/+ and P2rx7−/− mice; experiment: Sucrose preference test (SPT), LPS-induced anhedonia; assay type: in vivo, mouse; settings: for inhibitory effect on LPS-induced anhedonia in P2rx7−/− mice: acute treatment; for effect on LPS-induced anhedonia in P2rx7−/− mice: subacute 4-day treatment, compared with P2rx7+/+
# Description: The experiments were performed using the two-bottle sucrose preference paradigm. The decreased preference for sucrose vs. water in this test has been proposed to reflect impaired sensitivity towards reward and to model anhedonia. Mice were offered a choice of 2% sucrose solution or water during 12-hour nocturnal periods (starting at 19∶00). The bottles were weighed before and after each test session to monitor sucrose and water consumption. The relative position of the sucrose and water bottles were swapped every night to avoid place preferences. The baseline sucrose intake was measured under a habituation period of 3–4 days before administering the treatments, and the mean volume ingested over the last 3 training sessions was used as a baseline value. The sucrose consumption was measured for 4 consecutive nights after LPS (0.2 mg/kg i.p.) or saline administration and expressed as g/100 g body weight or as a percentage of the baseline (%).
# [4] = P2rx7+/+ slices, BzATP 100 µM 30 min, Mg2+-free
structure (smiles),measurement,setting,value
"O=C(Nc1cc(C(=O)Nc2ccc(S(=O)(=O)[O-])cc2S(=O)(=O)[O-])cc(C(=O)Nc2ccc(S(=O)(=O)[O-])cc2S(=O)(=O)[O-])c1)Nc1cc(C(=O)Nc2ccc(S(=O)(=O)[O-])cc2S(=O)(=O)[O-])cc(C(=O)Nc2ccc(S(=O)(=O)[O-])cc2S(=O)(=O)[O-])c1.[Na+].[Na+].[Na+].[Na+].[Na+].[Na+].[Na+].[Na+] [NF449, 4,4′,4′′,4′′′-[Carbonylbis(imino-5,1,3-benzenetriyl-bis(carbonylimino))]tetrakis-1,3-benzenedisulfonic acid, octasodium salt]",residual ATP-evoked [3H]Glu efflux in presence of antagonist,"[1]; P2rx7−/− slices, ATP 10 mM, antagonist 100 nM 15 min before ATP",sensitive to inhibition
"Nc1ncnc2c1ncn2[C@@H]1O[C@H](COP(=O)(O)OP(=O)(O)OP(=O)(O)O)[C@@H](OC(=O)c2ccc(C(=O)c3ccccc3)cc2)[C@H]1O [BzATP, 3′-O-(4-benzoyl-benzoyl)adenosine 5′-triphosphate]",BDNF level in hippocampal slices,[2]; [4],13.85 ± 0.98 pg/mL
same,decrease of basal BDNF level,[2]; [4],25.73%
same,effect on BDNF level,"[2]; P2rx7−/− slices, BzATP 100 µM, Mg2+-free",without significantly affecting
"N#Cc1cc2[nH]c(=O)c(=O)[nH]c2cc1[N+](=O)[O-] [CNQX, 6-cyano-7-nitroquinoxaline-2,3-dione]",effect on the inhibitory effect of BzATP on BDNF level,"[2]; P2rx7+/+ slices, BzATP 100 µM",occluded
same,"effect on basal BDNF level, compound alone (no BzATP)",[2]; P2rx7+/+ slices,decreased
"NC(C(=O)O)c1cc(O)cc(O)c1 (stereo not shown) [DHPG, 3,5-dihydroxyphenylglycine]",BDNF level in hippocampal slices in the presence of BzATP,"[2]; P2rx7+/+ slices, Mg2+-free",54.14 ± 1.92 pg/mL
same,"BDNF level in hippocampal slices, compound alone",[2]; P2rx7+/+ slices,41.59 ± 0.40 pg/mL
"C[C@@H](CN1CCC(Cc2ccccc2)CC1)[C@@H](O)c1ccc(O)cc1.O=C(O)/C=C\C(=O)O [RO-256981, (αR,βS)-α-(4-Hydroxyphenyl)-β-methyl-4-(phenylmethyl)-1-piperidinepropanol maleate]",BDNF level in hippocampal slices in the presence of BzATP,"[2]; P2rx7+/+ slices, Mg2+-free",15.75 ± 0.44 pg/mL
same,effect on the inhibitory effect of BzATP on BDNF level,"[2]; P2rx7+/+ slices, BzATP 100 µM",occluded
same,"effect on basal BDNF level, compound alone (no BzATP)",[2]; P2rx7+/+ slices,decreased
same,"BDNF level in hippocampal slices, compound alone",[2]; P2rx7+/+ slices,15.20 ± 0.12 pg/mL
"CC(N)(C(=O)O)c1ccc(C(=O)O)cc1 (stereo not drawn) [MCPG, α-Methyl-4-carboxyphenylglycine]",BDNF level in hippocampal slices in the presence of BzATP,"[2]; P2rx7+/+ slices, Mg2+-free",6.09 ± 1.17 pg/mL
same,decrease of BDNF level in the presence of BzATP,"[2]; P2rx7+/+ slices, BzATP 100 µM + MCPG 200 µM",67.34%
same,effect on the inhibitory effect of BzATP on BDNF level,"[2]; P2rx7+/+ slices, BzATP 100 µM",did not antagonize
same,"effect on basal BDNF level, compound alone (no BzATP)",[2]; P2rx7+/+ slices,significantly diminished
Nc1ncnc2c1ncn2[C@@H]1O[C@H](COP(=O)(O)OP(=O)(O)OP(=O)(O)O)[C@@H](O)[C@H]1O [ATP],"net release of tritium ([3H]Glu, fractional release)","[1]; P2rx7+/+ slices, 10 mM ATP, 6-min perfusion",3.34±0.57%
same,endogenous glutamate level in effluent (HPLC),"[1]; P2rx7+/+ slices, 10 mM ATP, peak vs resting",remarkable elevation
same,efflux of [3H]Glu,"[1]; P2rx7+/+ slices, 6-min perfusion, 1–10 mM",concentration-dependent increase
same,net [3H]Glu efflux (fractional release),"[1]; P2rx7−/− slices, 10 mM ATP",0.25±0.43%
CN(C)CCCC1(c2ccc(F)cc2)OCc2cc(C#N)ccc21 (stereo not shown) [citalopram],inhibitory effect on LPS-induced anhedonia in P2rx7−/− mice,[3],largely preserved
same,effect on LPS-induced anhedonia in P2rx7−/− mice,[3],largely preserved
"O=C(NNC(=O)c1ccc(CNS(=O)(=O)c2ccc(F)c(Cl)c2)cc1)c1ccccc1 [TCN-201, 3-Chloro-4-fluoro-N-[4[[2(phenylcarbonyl)hydrazino]carbonyl]benzyl] benzenesulfonamide]",effect on the inhibitory effect of BzATP on BDNF level,"[2]; P2rx7+/+ slices, BzATP 100 µM",occluded
same,"effect on basal BDNF level, compound alone (no BzATP)",[2]; P2rx7+/+ slices,unaffected
O=C(CC12CC3CC(CC(C3)C1)C2)Nc1cccc2nc(NCCNCCO)ccc12 [AZ-10606120],amount of sucrose consumed on the 3rd day after LPS injection,"[3]; P2rx7+/+ mice, acute injection 2 mg/kg i.p. 30 min before LPS, vs control",significantly higher
same,amount of sucrose consumed on the day after LPS injection,"[3]; P2rx7+/+ mice, subacute treatment 2 mg/kg i.p., vs control",significantly higher
same,inhibitory effect on LPS-induced anhedonia in P2rx7−/− mice,[3],completely absent
same,effect on LPS-induced anhedonia in P2rx7−/− mice,[3],significantly attenuated
